Measurements as given in patent publication US11667602B2, “Compounds and their use” (AstraZeneca AB, priority 2020, dated 2023).
Values after ≈ are worked out from the molar mass of the structure shown. Read-outs that look alike come from different tables or passages of the source.

What was measured:
[1] = Human Liver Microsomal Stability (Test C); type: in vitro ADME
In short: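 CLint (μl/min/mg protein) derived from compound depletion in human liver microsomes following a published standardized early-DMPK protocol; replicate determinations given as arithmetic mean.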

[2] = Rat Hepatocyte Stability (Test E); type: in vitro ADME; conditions: geometric mean if run multiple times
In short: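 Intrinsic clearance in rat hepatocytes, expressed as μl/min/10^6 cells, following the literature integrated DMPK panel method. Repeat determinations combined as geometric mean.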

human RXFP1 = target: T1, human RXFP1 (Homo sapiens, UniProt Q9HBX9); experiment: RXFP1 Hu cAMP (Test A); type: cell-based; design: expressed in transfected cells; host or cells: Jump-In T-REx CHO-K1 cells (ThermoFisher), induced with 10 ng/ml doxycycline for 24 h
T1 sequence (Q9HBX9 1-757): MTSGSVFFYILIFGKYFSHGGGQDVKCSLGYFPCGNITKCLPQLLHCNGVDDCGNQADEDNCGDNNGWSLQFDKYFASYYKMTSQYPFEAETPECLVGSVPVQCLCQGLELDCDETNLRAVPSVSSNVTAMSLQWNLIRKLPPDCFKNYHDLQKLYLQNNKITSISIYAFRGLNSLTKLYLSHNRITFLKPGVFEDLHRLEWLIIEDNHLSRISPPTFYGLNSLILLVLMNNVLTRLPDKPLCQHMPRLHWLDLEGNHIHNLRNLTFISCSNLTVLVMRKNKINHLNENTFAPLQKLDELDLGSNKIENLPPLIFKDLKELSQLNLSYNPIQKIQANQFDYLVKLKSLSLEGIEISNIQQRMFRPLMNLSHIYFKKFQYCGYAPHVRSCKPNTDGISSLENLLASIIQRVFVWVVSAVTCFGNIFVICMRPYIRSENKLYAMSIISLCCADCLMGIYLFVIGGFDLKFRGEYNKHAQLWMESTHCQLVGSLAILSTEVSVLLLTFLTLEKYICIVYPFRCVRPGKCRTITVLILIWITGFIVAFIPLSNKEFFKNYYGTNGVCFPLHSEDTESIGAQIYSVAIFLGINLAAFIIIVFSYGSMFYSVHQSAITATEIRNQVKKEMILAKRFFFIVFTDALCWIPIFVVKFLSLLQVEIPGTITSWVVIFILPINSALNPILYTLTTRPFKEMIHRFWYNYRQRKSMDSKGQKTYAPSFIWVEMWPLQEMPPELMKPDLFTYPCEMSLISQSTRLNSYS
In short: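 Cells: CHO-K1 stably carrying human RXFP1, expressed after 24 h 10 ng/ml doxycycline; 0.5 mM IBMX final, HTRF detection after 2 h at room temperature.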

[3] = Human Plasma Protein Binding (Test B); type: in vitro ADME; conditions: fraction unbound (fu)
In short: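 Values given as % free (fu) in human plasma, using the method of Wernevik et al. (2020). For compounds tested more than once, the arithmetic mean is given.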

Solubility (Test F) = type: physicochemical; conditions: arithmetic mean if run multiple times
Description: The assay was conducted according to the Solubility Assay described in pages 164-167 of Wernevik, J. et al., “A Fully Integrated Assay Panel for Early Drug Metabolism and Pharmacokinetics Profiling”, Assay and Drug Development Technologies, 2020, 18(4), 157-179. Data are reported in Table 36 as solubility ([…]. Where the assay was run multiple times for the same compound, the arithmetic mean is reported.

[4] = RXFP1 Hu cAMP, read-out: Test A EC50

Row | Structure (SMILES) | microsomal CLint ([1]; human, liver microsomes) | hepatocyte CLint ([2]; rat, hepatocytes) | Test A Sinf (human RXFP1; RXFP1 Hu cAMP) | EC50 (human RXFP1; [4]) | Test B Human Plasma Protein Binding (% free) [3] | solubility (Solubility (Test F)) | microsomal CLint ([1]; human liver microsomes) | hepatocyte CLint ([2]; rat hepatocytes) | EC50 (human RXFP1; Test A EC50, RXFP1 Hu cAMP)
1 | COc1cc(F)c(O[C@H]2CC[C@@H](C(=O)O)CC2)cc1C(=O)N[C@@H]1[C@H]2CC[C@H](C2)[C@@H]1C(=O)Nc1cccc(C(C)(C)C)c1 [Example 189] | 34 µL/min/mg | 23 µL/min/1e6 cells | 101% | 130 nM | 1.5 % free | 83 µM (≈ 48.2 µg/mL) |  |  | 
2 | COc1cc(F)c(-c2ccc(OCC(=O)O)cc2)cc1C(=O)N[C@@H]1[C@H]2CC[C@H](C2)[C@@H]1C(=O)Nc1cccc(S(=O)(=O)C(F)(F)F)c1 [Example 257, 2-((2′-Fluoro-4′-methoxy-5′-(((1S,2R,3S,4R)-3-((3-((trifluoromethyl)sulfonyl)phenyl)carbamoyl)bicyclo[2.2.1]heptan-2-yl)carbamoyl)-[1,1′-biphenyl]-4-yl)oxy)acetic acid] | 16 µL/min/mg | 9.5 µL/min/1e6 cells | 96% | 59 nM | 0.35 % free | > 1000 µM |  |  | 
3 | COc1cc(F)c(-c2ccc(OC(C)(C)C(=O)O)cc2)cc1C(=O)N[C@@H]1[C@H]2CC[C@H](C2)[C@@H]1C(=O)Nc1cccc(S(=O)(=O)C(F)(F)F)c1 [Example 256, 2-((2′-fluoro-4′-methoxy-5′-(((1S,2R,3S,4R)-3-((3-((trifluoromethyl)sulfonyl)phenyl)carbamoyl)bicyclo[2.2.1]heptan-2-yl)carbamoyl)-[1,1′-biphenyl]-4-yl)oxy)-2-methylpropanoic acid] | 8.1 µL/min/mg | 12 µL/min/1e6 cells | 99% | 250 nM | 0.050 % free | < 7 µM |  |  | 
4 | COc1cc(C#N)c(O[C@H]2CC[C@@](C)(C(=O)O)CC2)cc1C(=O)N[C@@H]1[C@H]2CC[C@H](C2)[C@@H]1C(=O)NCC1(F)CCC1 [Example 94] | 9 µL/min/mg | 32 µL/min/1e6 cells | 111% | > 710 nM | 14 % free | 830 µM (≈ 461 µg/mL) |  |  | 
5 | COc1cc(C#N)c(O[C@H]2CC[C@@](C)(C(=O)O)CC2)cc1C(=O)N[C@@H]1[C@H]2CC[C@H](C2)[C@@H]1C(=O)NCC1(CO)CCCC1 [Example 109] | 11 µL/min/mg | 26 µL/min/1e6 cells | 103% | 250 nM | 17 % free | 810 µM (≈ 471 µg/mL) |  |  | 
6 | COc1cc(F)c(O[C@H]2CC[C@@H](C(=O)O)CC2)cc1C(=O)N[C@@H]1[C@H]2CC[C@H](C2)[C@@H]1C(=O)Nc1cc(F)c(F)c(F)c1 [Example 187] | 15 µL/min/mg | 21 µL/min/1e6 cells | 105% | 250 nM | 0.41 % free | 580 µM (≈ 336 µg/mL) |  |  | 
7 | COc1cc(C#N)c(O[C@H]2CC[C@@](C)(C(=O)O)CC2)cc1C(=O)N[C@@H]1[C@H]2CC[C@H](C2)[C@@H]1C(=O)NCC1(C)CCCCCC1 [Example 105] | > 300 µL/min/mg | 48 µL/min/1e6 cells | 125% | 4.8 nM | 2.5 % free | 220 µM (≈ 131 µg/mL) |  |  | 
8 | COc1cc(F)c(-c2ccc(C(=O)O)c(F)c2)cc1C(=O)N[C@@H]1[C@H]2CC[C@H](C2)[C@@H]1C(=O)Nc1cccc(S(=O)(=O)C(F)(F)F)c1 [Example 236, 2′,3-Difluoro-4′-methoxy-5′-(((1S,2R,3S,4R)-3-((3-((trifluoromethyl)sulfonyl)phenyl)carbamoyl)bicyclo[2.2.1]heptan-2-yl)carbamoyl)-[1,1′-biphenyl]-4-carboxylic acid] | 13 µL/min/mg | 14 µL/min/1e6 cells | 103% | 210 nM | 0.50 % free | > 1000 µM |  |  | 
9 | COc1cc(C#N)c(O[C@H]2C[C@]3(C2)C[C@H](C(=O)O)C3)cc1C(=O)N[C@@H]1[C@H]2CC[C@H](C2)[C@@H]1C(=O)NCC1(C)CCC1 (single isomer, unassigned) [Example 7, (2R*,4r,6R)-6-(2-Cyano-4-methoxy-5-(((1S,2R,3S,4R)-3-(((1-methylcyclobutyl)methyl)carbamoyl)bicyclo[2.2.1]heptan-2-yl)carbamoyl)phenoxy)spiro[3.3]heptane-2-carboxylic acid] | 23 µL/min/mg | 23 µL/min/1e6 cells | 86% | 1300 nM | 4.4 % free | 820 µM (≈ 451 µg/mL) |  |  | 
10 | COc1cc(F)c(O[C@H]2CC[C@@H](C(=O)O)CC2)cc1C(=O)N[C@@H]1[C@H]2CC[C@H](C2)[C@@H]1C(=O)NC(C)C [Example 8, (1S,4s)-4-(2-Fluoro-5-(((1S,2R,3S,4R)-3-(isopropylcarbamoyl)bicyclo[2.2.1]heptan-2-yl)carbamoyl)-4-methoxyphenoxy)cyclohexane-1-carboxylic acid] | 1.7 µL/min/mg | 38 µL/min/1e6 cells |  | > 50000 nM | 23 % free | 980 µM (≈ 481 µg/mL) |  |  | 
11 | COc1cc(C#N)c(O[C@H]2CC[C@@](C)(C(=O)O)CC2)cc1C(=O)N[C@@H]1[C@H]2CC[C@H](C2)[C@@H]1C(=O)NCC1CC(C)(C)C1 [Example 87] | 20 µL/min/mg | 24 µL/min/1e6 cells | 109% | 110 nM | 6.7 % free | 690 µM (≈ 390 µg/mL) |  |  | 
12 | COc1cc(F)c(O[C@H]2CC[C@@H](C(=O)O)CC2)cc1C(=O)N[C@@H]1[C@H](C(=O)Nc2ccc(F)c(C(F)(F)F)c2)[C@@H]2CC[C@H]1O2 [Example 50, (1S,4s)-4-(2-Fluoro-5-(((1R,2R,3S,4S)-3-((4-fluoro-3-(trifluoromethyl)phenyl)carbamoyl)-7-oxabicyclo[2.2.1]heptan-2-yl)carbamoyl)-4-methoxyphenoxy)cyclohexane-1-carboxylic acid] | < 3 µL/min/mg | < 1 µL/min/1e6 cells |  | > 50000 nM | 1.9 % free | 60 µM (≈ 36.8 µg/mL) |  |  | 
13 | COc1cc(F)c(O[C@H]2CC[C@@H](C(=O)O)CC2)cc1C(=O)N[C@@H]1[C@H]2CC[C@H](C2)[C@@H]1C(=O)Nc1ccc(C#N)c(C(F)(F)F)c1 [Example 28] |  |  | 96% |  | 0.94 % free | 690 µM (≈ 426 µg/mL) | 32 µL/min/mg | 51 µL/min/1e6 cells | 44 nM
14 | COc1cc(F)c(O[C@H]2CC[C@@](C)(C(=O)O)CC2)cc1C(=O)N[C@@H]1[C@H]2CC[C@H](C2)[C@@H]1C(=O)NCC1(CF)CC1 [Example 48] | < 3 µL/min/mg | 18 µL/min/1e6 cells | 96% | 380 nM | 13 % free | 1000 µM (≈ 549 µg/mL) |  |  | 
15 | COc1cc(C#N)c(O[C@H]2CC[C@@](C)(C(=O)O)CC2)cc1C(=O)N[C@@H]1[C@H]2CC[C@H](C2)[C@@H]1C(=O)NC12CC3C[C@H](C1)C[C@H](C3)C2 [Example 81] | 97 µL/min/mg | 57 µL/min/1e6 cells | 111% | 31 nM | 2.7 % free | 250 µM (≈ 151 µg/mL) |  |  | 
16 | COc1cc(F)c(O[C@H]2CC[C@@H](C(=O)O)CC2)cc1C(=O)N[C@@H]1[C@H]2CC[C@H](C2)[C@@H]1C(=O)NC1CCC1 [Example 177] | 3.5 µL/min/mg | 130 µL/min/1e6 cells | 100% | > 2200 nM | 15 % free | > 1000 µM |  |  | 
17 | COc1cc(C#N)c(O[C@H]2CC[C@@](C)(C(=O)O)CC2)cc1C(=O)N[C@@H]1[C@H]2CC[C@H](C2)[C@@H]1C(=O)NC[C@H](F)CO [Example 89] | < 3 µL/min/mg | 17 µL/min/1e6 cells |  | > 5000 nM | 50 % free | 780 µM (≈ 426 µg/mL) |  |  | 
